This note sets out measurements from ChEMBL document CHEMBL1142686, “CoMFA, synthesis, and pharmacological evaluation of (E)-3-(2-carboxy-2-arylvinyl)-4,6-dichloro-1H-indole-2-carboxylic acids: 3-[2-(3-aminophenyl)-2-carboxyvinyl]-4,6-dichloro-1H-indole-2-carboxylic acid, a potent selective glycine-site NMDA receptor antagonist” (J Med Chem, 2005).

As usually defined, the IC50 is the concentration needed to halve the response being measured. A high value points to weaker potency.

Each structure is given as a SMILES string.

This test concerns the target Glutamate NMDA receptor. As to the kind of experiment: Antagonist activity of compound against rat N-methyl-D-aspartate glutamate receptor using 11 nM [3H]glycine. It is filed as functional.
Consider `O=C(O)/C(=C/c1c(C(=O)O)[nH]c2cc(Cl)cc(Cl)c12)c1cccnc1`, for which the IC50 was determined as 126 nM.
For `O=C(NCc1ccccc1)/C(=C/c1c(C(=O)O)[nH]c2cc(Cl)cc(Cl)c12)c1ccccc1`, the IC50 was found to be 31 nM.
The compound `O=C(O)/C(=C/c1c(C(=O)O)[nH]c2cc(Cl)cc(Cl)c12)c1ccc(C(F)(F)F)cc1` came in with an IC50 of 89 nM.
Then `O=C(Nc1ccccc1)/C(=C/c1c(C(=O)O)[nH]c2cc(Cl)cc(Cl)c12)c1ccccc1`, with 15 nM.
In the case of `O=C(O)/C(=C/c1c(C(=O)O)[nH]c2cc(Cl)cc(Cl)c12)c1ccco1` it was 22 nM; in that of `O=C(O)/C(=C/c1c(C(=O)O)[nH]c2cc(Cl)cc(Cl)c12)c1ccc([N+](=O)[O-])cc1`, 21 nM.
On to `O=C(NCCc1ccccc1)/C(=C/c1c(C(=O)O)[nH]c2cc(Cl)cc(Cl)c12)c1ccccc1`, for which inhibition was half-maximal at 224 nM (IC50).
With `CS(=O)(=O)Nc1ccc(/C(=C\c2c(C(=O)O)[nH]c3cc(Cl)cc(Cl)c23)C(=O)O)cc1`, half-maximal inhibition (IC50) was put at 167 nM.
In the case of `O=C(/C=C/c1c(C(=O)O)[nH]c2cc(Cl)cc(Cl)c12)Nc1ccccc1` [GAVESTINEL] it was 15 nM; in that of `COc1ccc(/C(=C\c2c(C(=O)O)[nH]c3cc(Cl)cc(Cl)c23)C(=O)O)cc1`, 136 nM.
